Measurements reported in US7989502B2, “Intranasal delivery of modafinil” (SRI International, priority 2009, dated 2011).

Tests used:
male Sprague Dawley rats = assay: Intranasal drug delivery snort model, EEG/EMG sleep-wake behavior in rats; assay type: in vivo, rat
Description: Formulation of Intranasal Drugs. Modafinil (Sigma) was solubilized using LME comprised of equal amounts of olive oil and phosphatidyl serine sonicated in succinate buffer, pH 8; modafinil concentrations 0.2 and 2 mg/ml. Control rats received either saline alone or lipid emulsion in succinate buffer, pH 8
Animals and surgery. Anesthetized male Sprague Dawley rats (250-350 g) were implanted with sleep recording electrodes to monitor electroencephalographic (EEG) and electromyographic (EMG) activities. A femoral vein catheter was also implanted and dorsally extended subcutaneously to exit at the posterior end of the EEG/EMG implant. The rats were individually housed in a controlled environment (12 h lights on/off; lights on, 8 am) with access to food and water ad libitum. The animals were allowed to recover for approximately 7-10 days following surgery and habituated to the recording chambers. Baseline behavior was continuously recorded for 48 to 60 h prior to experiment initiation and for at least 24 h post drug administration. Rats were sacrificed by pentobarbital administration (200 mg/kg, i.v.) into the femoral catheter without handling the animal, Greco et al., Neuroscience. 1999; 93(4):1369-74; Vazquez et al., J Cell Biochem. 2008 Dec. 15; 105(6):1472-84.
Intranasal drug delivery—snort model. Three hours into the lights on period, each rat was anesthetized with ˜3% isoflurane in O2 and placed on its back. The head and neck of the rat remained flat and horizontal throughout the entire procedure to prevent any drug from draining down the back of the throat. Reflexes were monitored periodically and anesthetic level was reduced to ˜1.5% isoflurane in O2 for anesthesia maintenance. Each drug was given in 6-7 ul administered with a manual pipette every 2 minutes into alternating nostrils (total volume=50 ul). Two minutes after the last drop was administered, the rat was removed from anesthesia, reconnected to the tethering cable and placed in the recording chamber. The effect of intranasal drug delivery on sleep-wake behavior was monitored for 24 h post-intranasal drug delivery.
Results. Rats awakened within one minute post modafinil administration. Control rats awoke within 3-5 minutes after termination of anesthesia. EEG and EMG activity during wakefulness, slow wave sleep (SWS), and rapid eye movement (REM) sleep were captured digitally, and subsequently scored manually in 10 sec epochs, averaged into one minute bins and represented graphically by hour for approximately 5 to 8 h post drug delivery. Representative individual hypnograms show the wake-promoting effects via intranasal delivery directly to the CNS. Modafinil induced wakefulness in rats at a 100-fold lower dose via our intranasal route than what has been previously published using traditional routes of administration (ie. i.v., oral).
We designed protocols to further optimize concentrations of sleep and wake promoting drugs for intranasal delivery. In exemplary experiments, the drugs are administered to rats in the following concentrations: Modafinil: 0.2 mg/ml (n=3), 0.1 mg/ml (n=3), 0 (LME only, n=3), and the rats instrumented and tested as detailed above.
Sleep Scoring and Statistical Analyses. EEG/EMG recordings are scored using SleepSign™ for Animals (Kissei Comtec, Irvine, Calif.), manually verified for accuracy and stored to disk. Waking is identified by the presence of desynchronized EEG readings and high EMG activity. SWS is identified by high amplitude slow waves together with a low EMG tone relative to waking. REM sleep is identified by the presence of regular theta activity coupled with low EMG relative to SWS. REM sleep is scored only when it follows at least a 15 s episode of SWS. All sleep-wake parameters are analyzed for each hour of the recording periods, then averaged to yield 24 h baseline estimates. A similar analysis is performed prior to and post intranasal drug administration. […]

healthy male subjects = assay: Intranasal modafinil in chronically sleep deprived humans (simulated military operation, 18 h continuous work); assay type: in vivo, human; conditions: 2, 10, 50 and 200 ug groups, VIANASE or OPTINOSE, given 9 h into the work period; versus LME-only and systemically-administered modafinil controls
Description: 4. Efficacy of our intranasal drug delivery in chronically sleep deprived humans is also readily confirmed using established methods. Our preferred protocol is based on the results of a series of experiments that tested the treatment efficacy of a hypnotic-stimulant combination to maintain sleep quality, performance, and alertness (Batéjat, et al., Aviat Space Environ Med. 2006 May; 77(5):515-25). Here, healthy male subjects are given zolpidem then allowed to sleep for 6 h prior to being subjected to a simulated military operation of 18 h continuous work. Modafinil (2, 10, 50 and 200 ug dosage treatment groups) is administered using (a) VIANASE electronic atomizer (Bothell, Wash.) or (b) OPTINOSE nasal delivery system (Oslo, Norway) 9 h into the work period. The effects of drugs on sleep-wake behavior (EEG recordings), cortical activation (Critical Flicker Frequency test) and performance levels (reaction time, memory search, attention, dual task, computerized Stroop tests) are monitored.

rats = assay: Chronic sleep deprivation paradigm, EEG/EMG recordings and roto-rod performance; assay type: in vivo, rat; conditions: rats deprived of sleep 6 h on 3 consecutive days
Description: In our chronic sleep deprivation paradigm rats are deprived of sleep for 6 h on 3 consecutive days starting at the beginning of the lights on period, when the pressure to sleep is maximal. The sleep deprivation begins with the administration of modafinil and is immediately followed by roto-rod testing. EEG/EMG recordings resumes once the rats are returned to the cage. If needed, the rats are kept awake for the remainder of the deprivation period by gentle handling. At the end of the sleep deprivation, the rats are again subjected to roto-rod testing. The sleep deprivation protocol is executed for 3 consecutive days. On the third day, half of the rats are sacrificed immediately following the sleep deprivation period. A second group of rats are sacrificed after 1-2 h of recovery sleep (RS). […]
In this protocol, the intranasal delivery of modafinil is assayed by two behavioral indicies—EEG/EMG recordings of sleep-wakefulness and performance (wheel running, roto-rod assay). […] The EEG/EMG data is analyzed as detailed above. For the roto-rod testing, the amount of time each rat spends on the wheel is analyzed and compared to control. Qualitative and quantitative analysis sets are generated and descriptive statistical comparisons and two-way ANOVA with post hoc multiple comparisons are used to evaluate changes in behavior/wheel running as a function of the day and drug, assuming equal variances.

NC(=O)C[S+]([O-])C(c1ccccc1)c1ccccc1 (stereo not drawn) [Modafinil]
effective dose, body-weight equivalent (male Sprague Dawley rats; 2.5 ug to a 350 g rat): 7.14 µg/kg | translated human dose (male Sprague Dawley rats; based on a human weighing 70 kg, from the rat effective dose): 0.5 mg | effective dose administered (male Sprague Dawley rats; in 50 ul of LME to a 350 g rat, intranasal): 2.5 µg | fold lower dose inducing wakefulness via intranasal route than published for traditional routes (i.v., oral) (male Sprague Dawley rats; rat, intranasal LME): 100 fold | time to awakening post modafinil administration (male Sprague Dawley rats; rat, intranasal snort delivery in LME under isoflurane anesthesia, control rats awoke within 3-5 minutes after termination of anesthesia): one | effective concentration of modafinil in the lipid microemulsion (male Sprague Dawley rats; rat, intranasal, 50 ul of LME): 0.05 mg/mL | effect of attempting to deliver an intranasal dose comparable to that given orally (male Sprague Dawley rats; rat, under isoflurane anesthesia): the excitatory effects overcame the anesthesia and the animals woke up | performance and alertness throughout the 18 h work period (healthy male subjects): maintain elevated performance and alertness over LME-only negative controls and even over systemically-administered modafinil positive-controls | effectiveness of intranasal delivery under chronic stressful conditions (rats): Our results confirm the effectiveness of intranasal delivery of modafinil under chronic stressful conditions
